According to patent publication US4298727A, “3',4'-Dideoxykanamycin A and 1-N-(S)-α-hydroxy-ω-aminoalkanoyl) derivatives thereof” (Zaidan Hojin Biseibutsu Kagaku KenkyuKai, priority 1979, dated 1981):
Values after ≈ are worked out from the molar mass of the structure shown. Where two headings read alike, the source gives them in different places.

Assays:
Serratia 7 = assay: MIC, standard serial dilution on nutrient agar; assay type: cell-based
[1] = test system: Staphylococcus aureus MS 9610; assay: MIC, standard serial dilution on nutrient agar; assay type: cell-based; details: Staphylococcus aureus, MS9610, 18 h
Proteus vulgaris BAC = assay: MIC, standard serial dilution on nutrient agar; assay type: cell-based; details: Proteus vulgaris, 18 h
[2] = test system: Staphylococcus aureus MS 9883; assay: MIC, standard serial dilution on nutrient agar; assay type: cell-based
[3] = test system: Klebsiella pneumoniae 22 #3038; assay: MIC, standard serial dilution on nutrient agar; assay type: cell-based
resistant bacteria [4] = details: in words, from Table 1
Description: The minimum inhibitory concentrations (mcg/ml) of the new compounds of this invention against various microorganisms were determined according to a standard serial dilution method using nutrient agar incubation medium at 37° C., the estimation being made after 18 hours incubation. For comparison purpose, the MIC. of kanamycin A, amikacin and dibekacin was also determined under the same test conditions.

Enterobacter HAU = assay: MIC, standard serial dilution on nutrient agar; assay type: cell-based
Erwinia 7-22 = assay: MIC, standard serial dilution on nutrient agar; assay type: cell-based; details: 722, 37° C., 18 hours
Serratia BOT = assay: MIC, standard serial dilution on nutrient agar; assay type: cell-based; details: Serratia, 18 h
Serratia CAT = assay: MIC, standard serial dilution on nutrient agar; assay type: cell-based; details: Serratia, 18 h
Proteus rettgeri AUB = assay: MIC, standard serial dilution on nutrient agar; assay type: cell-based; details: Providencia rettgeri
[5] = test system: Staphylococcus epidermides 109; assay: MIC, standard serial dilution on nutrient agar; assay type: cell-based; details: Staphylococcus, 109, 18 h
Enterobacter 666 = assay: MIC, standard serial dilution on nutrient agar; assay type: cell-based; details: 37° C., 18 hours
Pyocyanique = assay: MIC, standard serial dilution on nutrient agar; assay type: cell-based
[6] = test system: Pseudomonas aeruginosa A3; assay: MIC, standard serial dilution on nutrient agar; assay type: cell-based
Klebsiella HOU = assay: MIC, standard serial dilution on nutrient agar; assay type: cell-based
[7] = test system: Staphylococcus aureus APOI; assay: MIC, standard serial dilution on nutrient agar; assay type: cell-based; details: Staphylococcus aureus, 18 h
[8] = test system: Staphylococcus aureus 209P; assay: MIC, standard serial dilution on nutrient agar; assay type: cell-based; details: Staphylococcus aureus, 209P, 18 h
Providencia Pv 37 = assay: MIC, standard serial dilution on nutrient agar; assay type: cell-based; details: PV37, 37° C., 18 hours
Sarcina lutea PCI 1001 = assay: MIC, standard serial dilution on nutrient agar; assay type: cell-based; details: Micrococcus luteus
Klebsiella THO = assay: MIC, standard serial dilution on nutrient agar; assay type: cell-based; details: Klebsiella, 18 h
Providencia 19 = assay: MIC, standard serial dilution on nutrient agar; assay type: cell-based
[9] = test system: Escherichia coli K-12 ML 1629; assay: MIC, standard serial dilution on nutrient agar; assay type: cell-based; details: K12ML1629, 37° C., 18 hours
Providencia ZAO = assay: MIC, standard serial dilution on nutrient agar; assay type: cell-based; details: Providencia, 18 h
Klebsiella BRIA = assay: MIC, standard serial dilution on nutrient agar; assay type: cell-based; details: Klebsiella, 18 h
Escherichia coli K-12 = assay: MIC, standard serial dilution on nutrient agar; assay type: cell-based; details: K12, 37° C., 18 hours
resistant bacteria [10] = details: in words, background art; cited from earlier work
[11] = acute toxicity, intravenous injection in mice; assay type: in vivo; details: mouse, in vivo
From the text: (§1) Therefore, the new compounds of this invention are useful in therapeutic treatment of infections by various gram-negative and gram-positive bacteria, including the resistant bacterial strains. […] Accordingly, the low toxicity of the above new compounds of general formula (I) according to this invention is note-worthy, and the low toxicity of the new compounds of this invention with retaining the antibacterial activity substantially as high as that of the above-described known drugs will facilitate the clinical use of the new compounds, fulfilling the modern demand for providing efficient and less toxic drugs.

mice = assay: acute toxicity, intravenous injection in mice; assay type: in vivo
From the text: as §1

[12] = Pseudomonas aeruginosa, A3, 18 h

Row | Molecule | MIC [1] [µg/mL] | MIC (Proteus vulgaris BAC) [µg/mL] | MIC (Erwinia 7-22) [µg/mL] | MIC (Serratia BOT) [µg/mL] | MIC (Serratia CAT) [µg/mL] | MIC [5] [µg/mL] | MIC (Enterobacter 666) [µg/mL] | MIC [7] [µg/mL] | MIC [8] [µg/mL] | MIC (Providencia Pv 37) [µg/mL] | MIC (Klebsiella THO) [µg/mL] | MIC [9] [µg/mL] | MIC (Providencia ZAO) [µg/mL] | MIC (Klebsiella BRIA) [µg/mL] | MIC (Escherichia coli K-12) [µg/mL] | MIC (Serratia 7; Serratia, 7, 18 h) [µg/mL] | MIC ([3]; Klebsiella pneumoniae, 18 h) [µg/mL] | MIC (Enterobacter HAU; Enterobacter, 18 h) [µg/mL] | MIC (Proteus rettgeri AUB; 18 h) [µg/mL] | MIC (Pyocyanique; 18 h) [µg/mL] | other results
1 | NCCC(O)C(=O)NC1CC(N)C(OC2OC(CN)CCC2O)C(O)C1OC1OC(CO)C(O)C(N)C1O [Compound No. 2, 1-N-((S)-2-hydroxy-4-aminobutyryl)-3',4'-dideoxykanamycin A] | 1.56 (≈ 2.82 µM) | 1.56 (≈ 2.82 µM) | 0.78 (≈ 1.41 µM) | 6.25 (≈ 11.3 µM) | 6.25 (≈ 11.3 µM) | 0.78 (≈ 1.41 µM) | 0.78 (≈ 1.41 µM) | 0.78 (≈ 1.41 µM) | 1.56 (≈ 2.82 µM) | 6.25 (≈ 11.3 µM) | 1.56 (≈ 2.82 µM) | 1.56 (≈ 2.82 µM) | 6.25 (≈ 11.3 µM) | 1.56 (≈ 2.82 µM) | 1.56 (≈ 2.82 µM) | – | – | – | – | – | MIC (Serratia 7; Serratia 7, nutrient agar, 37° C., 18 hours, read-out: MIC.): 3.12 µg/mL (≈ 5.64 µM); MIC ([2]; MS9883, Staphylococcus aureus MS 9883, nutrient agar, 37° C., 18 hours, read-out: MIC.): 3.12 µg/mL (≈ 5.64 µM); MIC ([3]; Klebsiella pneumoniae 22 #3038, nutrient agar, 37° C., 18 hours, read-out: MIC.): 3.12 µg/mL (≈ 5.64 µM); antibacterial activity against various resistant bacteria (resistant bacteria [4]): higher antibacterial activity against the various resistant bacteria than amikacin; MIC (Enterobacter HAU; Enterobacter HAU, nutrient agar, 37° C., 18 hours, read-out: MIC.): 12.5 µg/mL (≈ 22.6 µM); MIC (Proteus rettgeri AUB; Proteus rettgeri AUB, nutrient agar, 37° C., 18 hours, read-out: MIC.): 3.12 µg/mL (≈ 5.64 µM); MIC (Pyocyanique; Pyocyanique, nutrient agar, 37° C., 18 hours, read-out: MIC.): 12.5 µg/mL (≈ 22.6 µM); MIC ([6]; Pseudomonas aeruginosa A3, nutrient agar, 37° C., 18 hours, read-out: MIC.): 3.12 µg/mL (≈ 5.64 µM); MIC (Klebsiella HOU; Klebsiella HOU, nutrient agar, 37° C., 18 hours, read-out: MIC.): 3.12 µg/mL (≈ 5.64 µM); MIC (Sarcina lutea PCI 1001; PCI1001, Sarcina lutea PCI 1001, nutrient agar, 37° C., 18 hours, read-out: MIC.): 3.12 µg/mL (≈ 5.64 µM); MIC (Providencia 19; Providencia 19, nutrient agar, 37° C., 18 hours, read-out: MIC.): 3.12 µg/mL (≈ 5.64 µM)
2 | NC[C@@H]1CC[C@@H](N)[C@@H](O[C@H]2[C@H](O)[C@@H](O[C@H]3O[C@H](CO)[C@@H](O)[C@H](N)[C@H]3O)[C@H](N)C[C@@H]2N)O1 [Dibekacin, 3',4'-dideoxykanamycin B] | – | 12.5 (≈ 27.7 µM) | > 100 | 25 (≈ 55.4 µM) | 6.25 (≈ 13.8 µM) | 0.78 (≈ 1.73 µM) | > 100 | 0.78 (≈ 1.73 µM) | 0.78 (≈ 1.73 µM) | > 100 | 1.56 (≈ 3.45 µM) | 1.56 (≈ 3.45 µM) | > 100 | > 100 | 1.56 (≈ 3.45 µM) | > 100 | > 100 | > 100 | 100 (≈ 221 µM) | 6.25 (≈ 13.8 µM) | activity against resistant bacteria (resistant bacteria [10]): remarkably active against a wide variety of resistant bacteria; MIC [6, 12]: 0.78 µg/mL (≈ 1.73 µM); MIC (Klebsiella HOU; Klebsiella, 18 h): > 100 µg/mL; MIC (Sarcina lutea PCI 1001; PCI1001, 18 h): 25 µg/mL (≈ 55.4 µM); MIC (Providencia 19; Providencia, 19, 18 h): > 100 µg/mL; LD50 [11]: 80 to 120 mg/kg
3 | NCC1OC(OC2C(N)CC(N)C(OC3OC(CO)C(O)C(N)C3O)C2O)C(O)C(O)C1O (centres unmarked) [Kanamycin A] | 6.25 (≈ 12.9 µM) | > 100 | > 100 | 6.25 (≈ 12.9 µM) | > 100 | 25 (≈ 51.6 µM) | > 100 | 12.5 (≈ 25.8 µM) | 3.12 (≈ 6.44 µM) | > 100 | > 100 | > 100 | > 100 | > 100 | 3.12 (≈ 6.44 µM) | > 100 | > 100 | > 100 | > 100 | 50 (≈ 103 µM) | MIC ([2]; Staphylococcus aureus, MS9883, 18 h): 6.25 µg/mL (≈ 12.9 µM); MIC [6, 12]: 25 µg/mL (≈ 51.6 µM); MIC (Klebsiella HOU; Klebsiella, 18 h): > 100 µg/mL; MIC (Sarcina lutea PCI 1001; PCI1001, 18 h): 12.5 µg/mL (≈ 25.8 µM); MIC (Providencia 19; Providencia, 19, 18 h): > 100 µg/mL
4 | gentamicin | – | – | – | – | – | – | – | – | – | – | – | – | – | – | – | – | – | – | – | – | LD50 value (acute toxicity) (mice): 80 to 120 mg/kg
